# Source: patent US10662476B2 (priority 2011, dated 2020)
# Read-outs that look alike come from different tables or passages of the source.
# Assays:
# [1] = Blood concentrations of morphine glucuronides by ABCC3 -211C>T genotype; settings: for ratio to morphine concentration: heterozygous or homozygous ABCC3 -211C>T versus wild-type; for mean concentration at sampling time 10 to 15 minutes: wild-types (C/C) versus heterozygous and homozygous ABCC3 -211C>T, after single morphine dose
# [2] = test system: children after tonsillectomy; test: Pain intensity before and after codeine (0-100 visual analog scale); assay type: in vivo, human; settings: POD 0-2; 0-100 VAS, 45-60 minutes after dose; SE 2
# [3] = test system: women following cesarean section; settings: cited from earlier work
# children following T/TA = settings: cited from earlier work
# [4] = test system: children after tonsillectomy; test: Codeine-related adverse drug reactions at home after tonsillectomy (parent diary); settings: with every one point increase in CYP2D6 TAS; POD 0-2
smiles,measurement,setting,value
"CN1CC[C@]23c4c5ccc(O)c4O[C@H]2[C@@H](O[C@@H]2O[C@H](C(=O)O)[C@@H](O)[C@H](O)[C@H]2O)C=C[C@H]3[C@H]1C5 [M6G, morphine-6-glucuronide]",ratio to morphine concentration,[1],significantly lower
same,blood concentration at sampling time 10 to 15 minutes,"[1]; twelve out of 105 children, all carrying the ABCC3 -211C>T variant, below lower quantitative limit",< 1 ng/mL
same,mean concentration at sampling time 10 to 15 minutes,[1],higher
"CN1CC[C@]23c4c5ccc(O[C@@H]6O[C@H](C(=O)O)[C@@H](O)[C@H](O)[C@H]6O)c4O[C@H]2[C@@H](O)C=C[C@H]3[C@H]1C5 [M3G, Morphine-3-glucuronide]",ratio to morphine concentration,[1],significantly lower
same,mean concentration at sampling time 10 to 15 minutes,[1],higher
COc1ccc2c3c1O[C@H]1[C@@H](O)C=C[C@H]4[C@@H](C2)N(C)CC[C@@]341 [codeine],reduction of pain intensity (average),[2],28 points
same,reported analgesia,"[3]; two patients with CYP2D6 TAS >3, discontinued due to ADRs",significant pain relief
same,reported analgesia,[3]; two patients with CYP2D6 TAS=0,no analgesia
same,children withdrawn from study due to intolerable side effects,children following T/TA; PRN administration following T/TA,6.7%
same,children withdrawn from study due to intolerable side effects,children following T/TA; around-the-clock (ATC) administration following T/TA,17.4%
same,increase of predicted number of ADRs,[4],0.41
